The record followed here is US20240174637A1, “DEGRADERS OF GRK2 AND USES THEREOF” (Sonata Therapeutics, Inc., priority 2021, published 2024).

Common to all, as to assay type: cell-based
Test [1] deals with PAXF1657 EV. As to the kind of experiment: 7-day cellular proliferation assay (CellTiter-Glo), PAXF1657 EV. The following applies: 168 h, 7-day, read-out: 7-day proliferation assay: IC50 GeoMean (uM) [Cell Line: PAXF1657 EV]. In a few lines:
(§1)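 Isogenic PAXF1657 pairs differing in GRK2 level (stable cDNA overexpression or CRISPR knockout, each with matched control) are seeded and allowed to attach overnight. Inhibitors span 30 μM-0.0002 μM in 0.3% DMSO for 3 plus 4 days at 37° C, 5% CO2, with a medium change between.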

Test [2] deals with PAXF1657 KO Clone #4. As to the kind of experiment: 7-day cellular proliferation assay (CellTiter-Glo), PAXF1657 KO Clone #4. The settings on record: 168 h, 7-day, read-out: 7-day proliferation assay: IC50 GeoMean (uM) [Cell Line: PAXF1657 KO Clone #4]. The gist of the method: as §1
Test [3] deals with T1, GRK2 (Homo sapiens, UniProt P25098).
T1 sequence (P25098 1-689): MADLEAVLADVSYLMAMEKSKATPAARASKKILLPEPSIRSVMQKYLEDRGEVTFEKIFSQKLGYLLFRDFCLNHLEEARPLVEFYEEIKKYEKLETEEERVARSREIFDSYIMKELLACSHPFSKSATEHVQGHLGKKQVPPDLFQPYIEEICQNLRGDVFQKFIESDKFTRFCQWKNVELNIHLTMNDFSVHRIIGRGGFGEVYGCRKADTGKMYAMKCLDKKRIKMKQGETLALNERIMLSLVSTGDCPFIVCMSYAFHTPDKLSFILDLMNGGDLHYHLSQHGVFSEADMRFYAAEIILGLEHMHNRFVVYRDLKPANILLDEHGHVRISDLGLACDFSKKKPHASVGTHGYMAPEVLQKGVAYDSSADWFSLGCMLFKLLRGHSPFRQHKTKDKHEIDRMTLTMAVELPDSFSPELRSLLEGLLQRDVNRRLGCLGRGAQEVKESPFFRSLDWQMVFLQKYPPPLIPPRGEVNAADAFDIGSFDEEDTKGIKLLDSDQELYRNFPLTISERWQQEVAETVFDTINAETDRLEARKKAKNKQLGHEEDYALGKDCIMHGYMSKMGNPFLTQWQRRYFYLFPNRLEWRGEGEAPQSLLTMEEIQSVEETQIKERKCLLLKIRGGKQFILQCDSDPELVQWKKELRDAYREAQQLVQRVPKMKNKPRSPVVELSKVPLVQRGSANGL
Briefly: GRK2 Degradation Assay and Western Blot in PAXF1657 cells. The following applies: PAXF1657 EV, 24 hrs; for inhibition at 1 µM: read-out: % GRK2 degradation at 1 uM in PAXF1657 EV (24 hrs). On the set-up: endogenous in cells; host or cells: PAXF1657. The gist of the method:
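GRK2 degradation judged by immunoblot: NP40 lysates separated by SDS-PAGE and probed for GRK2 and β-actin, with HRP/ECL detection. Lysates came from PAXF1657 cells exposed to 0–10 μM compound for 6–24 h after reaching 70% confluency.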
(In general: In western blotting, separated proteins are transferred to a membrane and probed.)

With `Cc1ncsc1-c1ccc(CNC(=O)[C@@H]2C[C@@H](O)CN2C(=O)[C@@H](NC(=O)COCCOCCCCCCOc2cccc(CNC(=O)c3cccc(NCc4nnc(-c5ccncn5)n4C)c3)c2)C(C)(C)C)cc1` [Compound D101], the IC50 in test [1] was less than 1 µM; in test [2], 1 to 10 µM. For the same molecule, in test [3], the inhibition at 1 µM worked out at 18%. Besides, the “% GRK2 degradation at 10 uM in PAXF1657 EV (24 hrs)” value in test [3] was 10%.
Consider `Cc1ncsc1-c1ccc(CNC(=O)[C@@H]2C[C@@H](O)CN2C(=O)[C@@H](NC(=O)COCCOCCOCCOCCOCCOCCCCCCOc2cccc(CNC(=O)c3cccc(NCc4nnc(-c5ccncn5)n4C)c3)c2)C(C)(C)C)cc1` [Compound D100], for which, in test [1], the IC50 is more than 10 µM. Besides, the IC50 in test [2] was more than 10 µM. Further, in test [3], the inhibition at 1 µM came out at 22% and the “% GRK2 degradation at 10 uM in PAXF1657 EV (24 hrs)” value came to 39%.
